{"source": "paper PMC6804253", "about": "“Predicting and Experimentally Validating Hot-Spot Residues at Protein–Protein Interfaces” (ACS Chemical Biology, 2019)", "key": {"[1]": {"tested_on": "PPIs of the SKEMPI data set (by PDBID)", "conditions": "ref SKEMPI, cited from earlier work; for sk_ddG_kJ (SKEMPI experimental ΔΔG of binding, mutation to alanine): single mutation to alanine in the complex of the given PDBID; for sk_ddG_kJ (SKEMPI experimental ΔΔG, mutation to alanine) / sk_ddG_kJ (SKEMPI experimental ΔΔG) / sk_ddG_kJ: single mutation to alanine; for sk_ddG_kJ (SKEMPI experimental ΔΔG, mutation to alanine) / sk_ddG_kJ: PPI given by PDBID; for sk_ddG_kJ (SKEMPI experimental ΔΔG, mutation to alanine): sheet sortedByGroup, r_group DERKH; for sk_ddG_kJ (SKEMPI experimental ΔΔG): complex given by PDBID, mutation by mut_pdb; for sk_ddG_kJ: SKEMPI experimental ΔΔG of binding; for sk_class: class of the SKEMPI experimental ΔΔG"}, "[2]": {"tested_on": "PPIs of the SKEMPI data set (by PDBID)", "experiment": "SKEMPI experimental ΔΔG, single mutations to alanine", "format": "binding", "conditions": "for sk_class (class of the SKEMPI experimental ΔΔG): ref SKEMPI; for sk_class: class of the SKEMPI experimental ΔΔG"}, "[3]": {"conditions": "Positive / Neutral / Negative by ΔΔG threshold 4.184 kJ/mol"}, "[4]": {"conditions": "class by ΔΔG threshold 4.184 kJ/mol"}}, "note": "Like-named read-outs stand apart in the source and are kept apart here.", "data": [{"molecule": "1A22 IA179A", "values": [{"measurement": "sk_ddG_kJ (SKEMPI experimental ΔΔG of binding, mutation to alanine)", "setting": "[1]", "result": 3.35, "unit": "kJ"}, {"measurement": "sk_class (class of the SKEMPI experimental ΔΔG)", "setting": "[2]; [3]", "result": "Neutral (neutral (little effect) 4.184 kJ/mol < ΔΔG > −4.184 kJ/mol)"}]}, {"molecule": "1A22 KA70A", "values": [{"measurement": "sk_ddG_kJ (SKEMPI experimental ΔΔG, mutation to alanine)", "setting": "[1]", "result": 2.18, "unit": "kJ"}, {"measurement": "sk_class (class of the SKEMPI experimental ΔΔG)", "setting": "[2]; [4]", "result": "Neutral (neutral (little effect) 4.184 kJ/mol < ΔΔG > −4.184 kJ/mol)"}]}, {"molecule": "1A22 KA168A", "values": [{"measurement": "sk_ddG_kJ (SKEMPI experimental ΔΔG, mutation to alanine)", "setting": "[1]", "result": -0.84, "unit": "kJ"}, {"measurement": "sk_class (class of the SKEMPI experimental ΔΔG)", "setting": "[2]; [4]", "result": "Neutral (neutral (little effect) 4.184 kJ/mol < ΔΔG > −4.184 kJ/mol)"}]}, {"molecule": "1A22 KA172A", "values": [{"measurement": "sk_ddG_kJ (SKEMPI experimental ΔΔG, mutation to alanine)", "setting": "[1]", "result": 8.37, "unit": "kJ"}, {"measurement": "sk_class (class of the SKEMPI experimental ΔΔG)", "setting": "[2]; [4]", "result": "Positive (positive (a hot residue) ΔΔG ≥ 4.184 kJ/mol)"}]}, {"molecule": "1A22 LA9A", "values": [{"measurement": "sk_ddG_kJ (SKEMPI experimental ΔΔG of binding, mutation to alanine)", "setting": "[1]", "result": -0.17, "unit": "kJ"}, {"measurement": "sk_class (class of the SKEMPI experimental ΔΔG)", "setting": "[2]; [3]", "result": "Neutral (neutral (little effect) 4.184 kJ/mol < ΔΔG > −4.184 kJ/mol)"}]}, {"molecule": "1A22 LA15A", "values": [{"measurement": "sk_ddG_kJ (SKEMPI experimental ΔΔG of binding, mutation to alanine)", "setting": "[1]", "result": 0.63, "unit": "kJ"}, {"measurement": "sk_class (class of the SKEMPI experimental ΔΔG)", "setting": "[2]; [3]", "result": "Neutral (neutral (little effect) 4.184 kJ/mol < ΔΔG > −4.184 kJ/mol)"}]}, {"molecule": "1A22 LA45A", "values": [{"measurement": "sk_ddG_kJ (SKEMPI experimental ΔΔG of binding, mutation to alanine)", "setting": "[1]", "result": 5.02, "unit": "kJ"}, {"measurement": "sk_class (class of the SKEMPI experimental ΔΔG)", "setting": "[2]; [3]", "result": "Positive (positive (a hot residue) ΔΔG ≥ 4.184 kJ/mol)"}]}, {"molecule": "1A22 LA73A", "values": [{"measurement": "sk_ddG_kJ (SKEMPI experimental ΔΔG of binding, mutation to alanine)", "setting": "[1]", "result": -0.84, "unit": "kJ"}, {"measurement": "sk_class (class of the SKEMPI experimental ΔΔG)", "setting": "[2]; [3]", "result": "Neutral (neutral (little effect) 4.184 kJ/mol < ΔΔG > −4.184 kJ/mol)"}]}, {"molecule": "1A22 NA12A", "values": [{"measurement": "sk_ddG_kJ (SKEMPI experimental ΔΔG)", "setting": "[1]", "result": 0.42, "unit": "kJ"}, {"measurement": "sk_class", "setting": "[2]", "result": "Neutral (neutral (little effect) 4.184 kJ/mol < ΔΔG > −4.184 kJ/mol)"}]}, {"molecule": "1A22 NA63A", "values": [{"measurement": "sk_ddG_kJ (SKEMPI experimental ΔΔG)", "setting": "[1]", "result": 1.26, "unit": "kJ"}, {"measurement": "sk_class", "setting": "[2]", "result": "Neutral (neutral (little effect) 4.184 kJ/mol < ΔΔG > −4.184 kJ/mol)"}]}, {"molecule": "1A22 QA22A", "values": [{"measurement": "sk_ddG_kJ (SKEMPI experimental ΔΔG)", "setting": "[1]", "result": -0.84, "unit": "kJ"}, {"measurement": "sk_class", "setting": "[2]", "result": "Neutral (neutral (little effect) 4.184 kJ/mol < ΔΔG > −4.184 kJ/mol)"}]}, {"molecule": "1A22 QA29A", "values": [{"measurement": "sk_ddG_kJ (SKEMPI experimental ΔΔG)", "setting": "[1]", "result": -2.51, "unit": "kJ"}, {"measurement": "sk_class", "setting": "[2]", "result": "Neutral (neutral (little effect) 4.184 kJ/mol < ΔΔG > −4.184 kJ/mol)"}]}, {"molecule": "1A22 QA46A", "values": [{"measurement": "sk_ddG_kJ (SKEMPI experimental ΔΔG)", "setting": "[1]", "result": 0.42, "unit": "kJ"}, {"measurement": "sk_class", "setting": "[2]", "result": "Neutral (neutral (little effect) 4.184 kJ/mol < ΔΔG > −4.184 kJ/mol)"}]}, {"molecule": "1A22 QA68A", "values": [{"measurement": "sk_ddG_kJ (SKEMPI experimental ΔΔG)", "setting": "[1]", "result": 2.51, "unit": "kJ"}, {"measurement": "sk_class", "setting": "[2]", "result": "Neutral (neutral (little effect) 4.184 kJ/mol < ΔΔG > −4.184 kJ/mol)"}]}, {"molecule": "1A22 QA69A", "values": [{"measurement": "sk_ddG_kJ (SKEMPI experimental ΔΔG)", "setting": "[1]", "result": -0.21, "unit": "kJ"}, {"measurement": "sk_class", "setting": "[2]", "result": "Neutral (neutral (little effect) 4.184 kJ/mol < ΔΔG > −4.184 kJ/mol)"}]}, {"molecule": "1A22 QA181A", "values": [{"measurement": "sk_ddG_kJ (SKEMPI experimental ΔΔG)", "setting": "[1]", "result": 1.13, "unit": "kJ"}, {"measurement": "sk_class", "setting": "[2]", "result": "Neutral (neutral (little effect) 4.184 kJ/mol < ΔΔG > −4.184 kJ/mol)"}]}, {"molecule": "1A22 RA8A", "values": [{"measurement": "sk_ddG_kJ (SKEMPI experimental ΔΔG, mutation to alanine)", "setting": "[1]", "result": 0.84, "unit": "kJ"}, {"measurement": "sk_class (class of the SKEMPI experimental ΔΔG)", "setting": "[2]; [4]", "result": "Neutral (neutral (little effect) 4.184 kJ/mol < ΔΔG > −4.184 kJ/mol)"}]}, {"molecule": "1A22 RA16A", "values": [{"measurement": "sk_ddG_kJ (SKEMPI experimental ΔΔG, mutation to alanine)", "setting": "[1]", "result": 1.00, "unit": "kJ"}, {"measurement": "sk_class (class of the SKEMPI experimental ΔΔG)", "setting": "[2]; [4]", "result": "Neutral (neutral (little effect) 4.184 kJ/mol < ΔΔG > −4.184 kJ/mol)"}]}, {"molecule": "1A22 RA19A", "values": [{"measurement": "sk_ddG_kJ (SKEMPI experimental ΔΔG, mutation to alanine)", "setting": "[1]", "result": 0.21, "unit": "kJ"}, {"measurement": "sk_class (class of the SKEMPI experimental ΔΔG)", "setting": "[2]; [4]", "result": "Neutral (neutral (little effect) 4.184 kJ/mol < ΔΔG > −4.184 kJ/mol)"}]}, {"molecule": "1A22 RA64A", "values": [{"measurement": "sk_ddG_kJ (SKEMPI experimental ΔΔG, mutation to alanine)", "setting": "[1]", "result": 6.69, "unit": "kJ"}, {"measurement": "sk_class (class of the SKEMPI experimental ΔΔG)", "setting": "[2]; [4]", "result": "Positive (positive (a hot residue) ΔΔG ≥ 4.184 kJ/mol)"}]}, {"molecule": "1A22 RA178A", "values": [{"measurement": "sk_ddG_kJ (SKEMPI experimental ΔΔG, mutation to alanine)", "setting": "[1]", "result": 10.04, "unit": "kJ"}, {"measurement": "sk_class (class of the SKEMPI experimental ΔΔG)", "setting": "[2]; [4]", "result": "Positive (positive (a hot residue) ΔΔG ≥ 4.184 kJ/mol)"}]}, {"molecule": "1A22 RA183A", "values": [{"measurement": "sk_ddG_kJ (SKEMPI experimental ΔΔG, mutation to alanine)", "setting": "[1]", "result": 2.09, "unit": "kJ"}, {"measurement": "sk_class (class of the SKEMPI experimental ΔΔG)", "setting": "[2]; [4]", "result": "Neutral (neutral (little effect) 4.184 kJ/mol < ΔΔG > −4.184 kJ/mol)"}]}, {"molecule": "1REW QC86A (protein, UniProt P36894 24-152, looked up, variant Q86A, extracellular domain) extracellular domain: QNLDSMLHGTGMKSDSDQKKSENGVTLAPEDTLPFLKCYCSGHCPDDAINNTCITNGHCFAIIEEDDQGETTLASGCMKYEGSDFACKDSPKAQLRRTIECCRTNLCNQYLQPTLPPVVIGPFFDGSIR", "values": [{"measurement": "sk_ddG_kJ", "setting": "[1]", "result": 11.13, "unit": "kJ"}, {"measurement": "sk_class", "setting": "[1]", "result": "Positive (positive (a hot residue) ΔΔG ≥ 4.184 kJ/mol)"}]}, {"molecule": "1JRH NI48A (protein, UniProt P15260 18-245, looked up, variant N48A, extracellular domain) extracellular domain: EMGTADLGPSSVPTPTNVTIESYNMNPIVYWEYQIMPQVPVFTVEVKAYGVKNSEWIDACINISHHYCNISDHVGDPSNSLWVRVKARVGQKESAYAKSEEFAVCRDGKIGPPKLDIRKEEKQIMIDIFHPSVFVNGDEQEVDYDPETTCYIRVYNVYVRMNGSEIQYKILTQKEDDCDEIQCQLAIPVSSLNSQYCVSAEGVLHVWGVTTEKSKEVCITIFNSSIKG", "values": [{"measurement": "sk_ddG_kJ", "setting": "[1]", "result": 2.64, "unit": "kJ"}, {"measurement": "sk_class", "setting": "[1]", "result": "Neutral (neutral (little effect) 4.184 kJ/mol < ΔΔG > −4.184 kJ/mol)"}]}, {"molecule": "1JRH SI54A (protein, UniProt P15260 18-245, looked up, variant S54A, extracellular domain) extracellular domain: EMGTADLGPSSVPTPTNVTIESYNMNPIVYWEYQIMPQVPVFTVEVKNYGVKNAEWIDACINISHHYCNISDHVGDPSNSLWVRVKARVGQKESAYAKSEEFAVCRDGKIGPPKLDIRKEEKQIMIDIFHPSVFVNGDEQEVDYDPETTCYIRVYNVYVRMNGSEIQYKILTQKEDDCDEIQCQLAIPVSSLNSQYCVSAEGVLHVWGVTTEKSKEVCITIFNSSIKG", "values": [{"measurement": "sk_ddG_kJ", "setting": "[1]", "result": 1.92, "unit": "kJ"}, {"measurement": "sk_class", "setting": "[1]", "result": "Neutral (neutral (little effect) 4.184 kJ/mol < ΔΔG > −4.184 kJ/mol)"}]}, {"molecule": "1JRH NI53A (protein, UniProt P15260 18-245, looked up, variant N53A, extracellular domain) extracellular domain: EMGTADLGPSSVPTPTNVTIESYNMNPIVYWEYQIMPQVPVFTVEVKNYGVKASEWIDACINISHHYCNISDHVGDPSNSLWVRVKARVGQKESAYAKSEEFAVCRDGKIGPPKLDIRKEEKQIMIDIFHPSVFVNGDEQEVDYDPETTCYIRVYNVYVRMNGSEIQYKILTQKEDDCDEIQCQLAIPVSSLNSQYCVSAEGVLHVWGVTTEKSKEVCITIFNSSIKG", "values": [{"measurement": "sk_ddG_kJ", "setting": "[1]", "result": 19.71, "unit": "kJ"}, {"measurement": "sk_class", "setting": "[1]", "result": "Positive (positive (a hot residue) ΔΔG ≥ 4.184 kJ/mol)"}]}]}
